Data on one compound can be found in patent US20220193209A1, “COMPOSITIONS AND METHODS FOR REACTIVATING LATENT IMMUNODEFICIENCY VIRUS AND/OR TREATING IMMUNODEFICIENCY VIRUS INFECTION” (The J. David Gladstone institutes, a testamentary trust …, priority 2019, published 2022).

In experiment [1] the test system is HIV latency establishment (HIVGKO) in primary CD4+ T cells. Briefly: HIVGKO latency establishment in primary resting CD4+ T cells. The class given is cell-based, HIV-1. The conditions noted are these: increasing doses, 72 hours.
The subject of experiment [2] is HIV-1 latency establishment (HIVGKO reporter virus) in K562 cells. Nature of the experiment: HIVGKO dual-color reporter latency establishment in K562 cells (FACS). The class given is cell-based. The source says: While the effect of FOXO1 inhibitor treatment on productive infection has been tested (Trinite, B. et al. PLoS One 9, (2014)), its effect on latent HIV previously remained unknown. To test the potential of FOXO1 inhibition to affect HIV-1 latency, the new second-generation dual-color reporter virus HIVGKO (LTR-HIV-Δ-env-nefATG-csGFP-EF1α-mKO2) and the FOXO1 inhibitor AS1842856 were employed (FIG. 1, Panel A). In this system, latently-infected K562 cells express the mKO2 fluorophore, while cells containing a productive and active virus express both mKO2 and GFP fluorophores, the latter controlled by the HIV-1 LTR. […] Concomitantly, the proportion of actively infected cells increased. […] Thus, FOXO1 inhibition prevented HIV-1 latency establishment and increased the ratio between actively and latently infected cells.
Briefly, K562 cells were treated with increasing concentrations of the FOXO1 inhibitor AS1842856 just after HIVGKO infection. After 3-4 days, the percentage of latent cells and productive cells were quantified by FACS. In left panel, amount of productive or latent cells relative to the total infection rate (bars) and cell viability (dots). In the right panel, ratios of productive versus latent populations upon increasing concentrations of AS1842856 treatments. Data are represented as mean f SD of triplicate values, representative of three independent experiments. […]

The subject of experiment [3] is latent HIV-1 provirus in J-Lat cells. Briefly: HIV-GFP reactivation in J-Lat cell lines (RT-qPCR, FACS). The class given is cell-based. The method, then:
Total RNA from samples was extracted using the Direct-zol RNA kit (R2060; Zymogen). cDNA was generated using 500 ng for CD4^+ T cells or 1000 ng of total RNA for J-Lats with Superscript III Reverse transcription (18080-044; ThermoFisher) and oligo(dT) (18418-012; ThermoFisher). Quantitative RT-PCR was carried out using Maxima SYBR Green qPCR Master Mix (Thermo Scientific) on SDS 2.4 software (Applied Biosystems) in a total volume of 12 μL. The SYBR green qPCR reactions contained 5 μl of 2× Maxima SYBR green/Rox qPCR Master Mix (K0221; ThermoFisher), 5 μl of diluted cDNA, and 1 nmol of both forward and reverse primers. The reactions were run using the following conditions: 50° C. for 2 min and 95° C. for 10 min, followed by 40 cycles of 95° C. for 5 s and 62° C. for 30 s. See Table 1 below for a qRT-PCR primer list. […] Dissociation curve analysis was performed after the end of the PCR to confirm the presence of a single and specific product. All qPCRs were independently repeated at least three times, averaged and compared using standard deviation (±SD).
The J-Lat clonal cell lines are Jurkat cells that contain a stably integrated, latent HIV-1 (HXB) Δenv provirus with a GFP reporter gene in place of the nef gene (Jordan, A. et al. EMBO J. 22, 1868-1877 (2003)). In this system, reactivation from established latency can be monitored through GFP expression.
HIV-GFP mRNA reactivation was assessed by RT-qPCR and normalized to RPL13A mRNA. Data represent average SD of three independent experiments. p-value relative to the control at each time point. FIG. 3, Panel B, depicts cell viability assessed by flow cytometry at 72 h of the same experiment as in A. Cell viability was measured by gating on both the live population at the forward scatter (FSC) and side scatter (SSC) plot and then the viable cells after staining with the viability dye. […] HIV-GFP reactivation (bars) and cell viability (dots) were analyzed by FACS. HIV-GFP reactivation is reported as a percentage of GFP-expressing cells (% GFP+ cells). Data represent average f SD of at least three independent experiments. FIG. 3, Panel D, depicts the same experiments as in FIG. 3, Panel C, but performed in different J-Lat cell lines 5A8, 6.3, 11.1 and 15.4. Data represent average f SD of at least three independent experiments. 10 ng/mL TNFα was used as control. […] Calculation of synergy for drug combinations using the Bliss independence model applied to the HIV-GFP reactivation measured as a percentage of GFP-expressing cells (% GFP+ cells).
Chromatin was prepared from J-Lat A2 and 5A8 cells, in which the LTR was stimulated by 1000 nM AS1842856 treatment, TNFα or which were left untreated/DMSO. […] HIV-GFP reactivation was analyzed by FACS and relativized to the control condition. […] Data represent average SD of 3-6 independent experiments. […] HIV-GFP reactivation was analyzed by FACS. […] HIV-GFP reactivation and cell viability were analyzed by FACS. Data were mean±SD of three independent experiments.
For orientation: Quantitative PCR measures a nucleic acid by following its amplification.

Experiment [4] has as its system latent HIVNL4-3 Luciferase reporter virus in primary CD4+ T cells. Briefly: Luciferase reporter HIV reactivation in primary CD4+ T cells. The class given is cell-based, HIV-1. The conditions noted are these: 6 days after infection, increasing concentrations. (In general: A reporter such as luciferase makes a cellular process visible.)
Procedure: For reactivation of latent HIV-1 provirus, cells were counted and collected as pellets by centrifugation at 1500 rpm for 10 min. Cells were then plated in 96-well U-bottom plates at 1×10^6 per 200 μl in the presence of 30 μM Raltegravir (Santa Cruz Biotechnology) and the indicated activator. Cells were harvested 48 h after stimulation, washed one time with PBS, and lysed in 60 μl of Passive Lysis Buffer (Promega). After 15 min of lysis, the luciferase activity in cell extracts was quantified with a Perkin Elmer EnSpire 2300 Multimode plate reader after mixing 20 μl of lysate with 100 μl of substrate (Luciferase Assay System-Promega). Relative light units (RLU) were normalized to protein content determined by Bradford assay (BioRad). Data represent average (±SD) of three technical replicates per donor. Cell viability was measured with CellTiter-Blue Cell Viability Assay (Promega).
HIV reactivation was measured by luciferase activity and cell viability by flow cytometry.

Consider `CCn1cc(C(=O)O)c(=O)c2c(N)c(F)c(NC3CCCCC3)cc21` [AS1842856, 5-amino-7-(cyclohexylamino)-1-ethyl-6-fluoro-4-oxo-1,4-dihydro-quinoline-3-carboxylic acid], for which the “productive infection and establishment of latency” value in experiment [1] is “promoted productive infection and decreased the establishment of latency”. The IC50 (usually the point on the concentration scale where inhibition reaches its midpoint) in experiment [2] (Human immunodeficiency virus 1, K562, read-out: IC50 observed in the cell culture system) is 0.06 µM. In addition, the “proportion of latently infected cells” value in experiment [2] (K562, increasing concentrations) is reported as “decreased”. Besides, the “HIV-driven GFP expression (flow cytometry)” value in experiment [3] (J-Lat A2 cells (contain Tat)) and in experiment [3] (J-Lat A72 cells (no Tat)) was “increased GFP expression” in each case. Also, the “HIV reactivation (percentage of GFP+ cells, median fluorescence intensity)” value in experiment [3] (four J-Lat clonal cell lines, 72 hours) is “reactivated HIV in each cell line”. Moreover, the “luciferase expression (HIV reactivation)” value in experiment [4] was “reactivated luciferase expression”.
